Data taken from the supplement of paper PMC10307832.

Key:
Experiment in all cases: relative viability (nuclei count vs DMSO), 5 days (fraction); higher = more cells survive
Quizartinib + OSI-027 = compound: CC(C)(C)c1cc(NC(=O)Nc2ccc(-c3cn4c(n3)sc3cc(OCCN5CCOCC5)ccc34)cc2)no1 [Quizartinib] + COc1cccc2cc(-c3nc([C@H]4CC[C@H](C(=O)O)CC4)n4ncnc(N)c34)[nH]c12 [OSI-027] (partner 0.5 µM)
Summary of the method: (§1)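 A single step with final 0.05% Triton X-100, 1% formaldehyde and 1 ug/ml Hoechst fixed the cells and stained nuclei 5 days after treatment. Lung cancer cell lines in 1536-well plates had been treated by pin tool the day after seeding with one drug alone or a fixed anchor-drug dose plus five library-drug doses (not always all listed) in √10 steps, and nuclei were counted on 4× images. Relative viability is the ratio of nuclei in treated wells to nuclei in vehicle wells, taken as the median of duplicate plates.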

Quizartinib + Vorinostat = compound: CC(C)(C)c1cc(NC(=O)Nc2ccc(-c3cn4c(n3)sc3cc(OCCN5CCOCC5)ccc34)cc2)no1 [Quizartinib] + O=C(CCCCCCC(=O)Nc1ccccc1)NO [Vorinostat] (partner 1 µM)
Summary of the method: as §1

YM155 + Navitoclax = compound: COCC[n+]1c2c(n(Cc3cnccn3)c1C)C(=O)c1ccccc1C2=O [YM155] + CC1(C)CCC(c2ccc(Cl)cc2)=C(CN2CCN(c3ccc(C(=O)NS(=O)(=O)c4ccc(N[C@H](CCN5CCOCC5)CSc5ccccc5)c(S(=O)(=O)C(F)(F)F)c4)cc3)CC2)C1 [Navitoclax] (partner 0.5 µM)
Summary of the method: as §1

YM155 + Linsitinib = compound: COCC[n+]1c2c(n(Cc3cnccn3)c1C)C(=O)c1ccccc1C2=O [YM155] + C[C@]1(O)C[C@@H](c2nc(-c3ccc4ccc(-c5ccccc5)nc4c3)c3c(N)nccn32)C1 [Linsitinib] (partner 1 µM)
Summary of the method: as §1

Cell Line	relative viability (Quizartinib + OSI-027; first compound 0.001 µM)	relative viability (Quizartinib + OSI-027; first compound 0.003162 µM)	relative viability (Quizartinib + OSI-027; first compound 0.01 µM)	relative viability (Quizartinib + OSI-027; first compound 0.1 µM)	relative viability (Quizartinib + Vorinostat; first compound 0.001 µM)	relative viability (Quizartinib + Vorinostat; first compound 0.003162 µM)	relative viability (Quizartinib + Vorinostat; first compound 0.01 µM)	relative viability (Quizartinib + Vorinostat; first compound 0.03162 µM)	relative viability (Quizartinib + Vorinostat; first compound 0.1 µM)	relative viability (YM155 + Navitoclax; first compound 0.002 µM)	relative viability (YM155 + Navitoclax; first compound 0.006325 µM)	relative viability (YM155 + Navitoclax; first compound 0.02 µM)	relative viability (YM155 + Navitoclax; first compound 0.06325 µM)	relative viability (YM155 + Linsitinib; first compound 0.002 µM)	relative viability (YM155 + Linsitinib; first compound 0.006325 µM)	relative viability (YM155 + Linsitinib; first compound 0.02 µM)	relative viability (YM155 + Linsitinib; first compound 0.06325 µM)	relative viability (Quizartinib + OSI-027; first compound 0.03162 µM)
SK-MES-1	0.538	0.582	0.658	0.622	1.01	1	1.2	0.586	1.03	1.3	1.36	1.28	1.07	1.12	1.07	1.12	0.964	–
LK-2	0.182	0.199	0.185	0.182	0.179	0.185	0.306	0.315	0.294	0.776	0.855	0.85	1.09	0.425	0.764	0.491	0.796	0.198
NCI-H2085	0.784	0.648	0.662	0.525	0.694	0.784	0.791	0.796	0.733	1.06	0.989	0.99	0.674	0.822	0.743	0.852	0.517	0.778
NCI-H2087	–	0.583	0.486	0.496	0.751	0.705	0.676	0.384	0.73	1.03	0.875	0.969	0.816	0.979	0.741	0.861	0.868	0.514
NCI-H2347	0.234	0.434	0.365	0.516	0.544	0.647	0.715	0.522	0.603	0.756	0.779	0.83	0.46	0.965	0.93	1.1	0.618	0.377
HOP-62	0.75	0.769	1.03	0.847	0.456	0.429	0.577	0.566	0.619	0.97	0.969	0.979	1.11	0.906	1.02	1.32	0.92	0.87
SW 1573	0.423	0.59	0.573	0.666	0.556	0.715	0.684	–	1.27	1.05	0.959	1.04	0.555	0.88	0.939	0.769	0.686	–
NCI-H1944	0.407	0.476	0.327	0.387	0.448	0.579	0.465	0.532	0.588	1.05	0.983	1.05	1.17	1.14	1.15	1.19	1.32	0.395
HCC-44	–	0.641	0.416	0.549	1.23	1.09	1.13	1.21	1.11	0.983	1.04	0.988	0.914	0.712	0.724	0.715	0.664	0.475
NCI-H460	0.585	0.593	0.692	0.533	–	0.734	0.687	–	0.566	1.17	1.23	1.27	0.903	0.778	0.936	0.735	0.517	0.341
NCI-H1993	0.487	0.46	0.672	0.544	0.68	0.76	0.939	0.726	0.725	0.968	0.951	0.847	0.795	0.678	0.701	0.777	0.697	0.621
LOU-NH91	0.673	0.749	0.712	0.767	0.86	1.04	0.899	0.721	1.12	0.748	0.677	0.725	0.716	1.05	0.879	0.97	0.978	0.742
201T	0.421	0.691	0.692	0.615	1	0.982	0.963	0.965	0.992	1.26	1.18	1.17	1.23	0.98	0.984	1.03	1.06	0.412
EKVX	0.43	0.691	0.656	0.728	–	0.815	0.631	0.69	0.634	0.854	0.989	1.01	0.704	0.958	1.09	1.04	0.697	0.674
NCI-H1651	0.672	0.584	0.637	0.742	0.535	0.64	0.551	0.527	0.612	1.22	0.995	1.08	0.606	1.04	0.94	1	0.642	0.632
